Here are results for eight compounds from PubChem BioAssay (NCI).

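A five-concentration, 48-hour dose response in 96-well plates underlies each endpoint, interpolated linearly between surrounding concentrations. TGI denotes the concentration required for complete inhibition of growth.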

Common to all, as to assay: inhibition of tumour cell growth, NCI panel, 48 h
In assay [1] the test system is ACHN renal.
Assay [2] deals with HL-60(TB) leukemia.
The subject of assay [3] is OVCAR-4 ovarian.
The test system of assay [4] is SK-MEL-5 melanoma.
Assay [5] deals with T-47D breast.
Assay [6] deals with SF-268 CNS.
In assay [7] the test system is MCF7 breast.
Assay [8] has as its system NCI/ADR-RES ovarian.
The test system of assay [9] is SF-539 CNS.
Assay [10] relates to A549 NSCLC.
The test system of assay [11] is M14 melanoma.
Assay [12] concerns OVCAR-8 ovarian.
Assay [13] relates to HCT-116 colon.
The test system of assay [14] is U251 CNS.
For assay [15], the system named is UACC-257 melanoma.
The subject of assay [16] is MDA-MB-231 breast.
Assay [17] concerns K-562 leukemia.
Assay [18] has as its system NCI-H460 lung.

With `CN1N=C(c2ccncc2)OC1c1cccc(F)c1` (stereo not drawn), the TGI in [1], in assay [2], in assay [3], in assay [4], in assay [5] and in assay [6] was > 100 µM throughout. Besides, the TGI in [7], in assay [8], in assay [9], in [10], in assay [11] and in assay [12] was > 100 µM throughout. Besides, the TGI in assay [13], in assay [14], in assay [15], in assay [16], in assay [17] and in [18] was > 100 µM in each case.
Turning to `CN1C(=O)C(=Cc2ccc(Br)cc2)C(=O)N(C)C1=O`, the TGI in assay [1], in assay [3], in assay [4], in assay [5], in [6] and in assay [7] was > 100 µM throughout. In addition, the TGI in [8], in assay [10], in assay [11], in [13], in assay [14] and in assay [15] was > 100 µM each time. In addition, the TGI in [16], in [17] and in assay [18] was > 100 µM throughout.
As for `Nc1ncnc2c1ccn2CC#CCO`, the TGI in assay [1], in assay [2], in [3], in [4], in assay [5] and in assay [6] was > 100 µM each time. For the same compound, the TGI in [7], in assay [8], in assay [9], in assay [10], in [11] and in [12] was > 100 µM throughout. For the same compound, the TGI in assay [13], in assay [14], in assay [15], in assay [16], in [17] and in [18] was > 100 µM each time.
On to `COc1nc(=O)[nH]c2c1C(c1ccc([N+](=O)[O-])cc1)c1c(OC)nc(=O)[nH]c1O2`, for which the TGI in assay [1], in assay [2], in assay [3], in assay [4], in assay [6] and in [8] was > 100 µM each time. The TGI in assay [10], in assay [11], in [12], in [13], in assay [14] and in assay [15] was > 100 µM throughout. The TGI in [16] and in [18] was > 100 µM throughout.
`Nc1ccc(Oc2ccc(C34CC5C6CC7(c8ccc(Oc9ccc(N)cc9)cc8)CC5C(C3)C(C7)C6C4)cc2)cc1`: the TGI in assay [1], in assay [2], in assay [3], in assay [4], in [5] and in assay [6] was > 100 µM each time. Besides, the TGI in [7], in assay [8], in [10], in [11], in assay [12] and in [13] was > 100 µM each time. The TGI in assay [14], in assay [15], in [16], in assay [17] and in [18] was > 100 µM throughout.
For the compound `COC1(OC)CCN(Cc2ccccc2)C1=O`, the TGI in assay [1] is 19.7 µM; in assay [2], 4.15 µM; in assay [3], 30.6 µM; in [4] it was 29.2 µM; in assay [5], 18.8 µM; in [6], > 52.8 µM. Besides, the TGI was determined as 25.3 µM in [7]; 55.3 µM in [8]; 28.6 µM in [9]; 32.3 µM in assay [10]; 23 µM in [11]; 17.9 µM in [12]. Also, the TGI is 13.9 µM in assay [13]; 34.1 µM in assay [14]; 28.6 µM in assay [15]; 38.8 µM in assay [16]; > 37.9 µM in assay [17]; 41.2 µM in assay [18].
Consider `O=C(c1ccccc1)c1ccc(N2C(=O)/C(=C/c3cccc(Oc4ccccc4)c3)N=C2c2ccccc2)c(N2C(=O)/C(=C/c3cccc(Oc4ccccc4)c3)N=C2c2ccccc2)c1`, for which the TGI is > 100 µM in [1]; 35.9 µM in assay [2]; > 100 µM in assay [3]; 30.7 µM in [4]; > 100 µM in assay [5]; > 100 µM in [6]. The TGI in assay [7] was 94.3 µM; in assay [8], 69.1 µM; in [10], > 100 µM; in assay [11], > 100 µM; in assay [12], > 100 µM; in assay [13], > 100 µM. Moreover, the TGI was > 100 µM in [14]; 71.7 µM in assay [15]; > 100 µM in assay [16]; > 100 µM in assay [17]; 80.4 µM in assay [18].
Take `CCOC(=O)c1ccc(N=C2Sc3nc4ccccc4n3C2=Nc2ccc(C(=O)OCC)cc2)cc1`: the TGI in assay [1] is 57.2 µM; in assay [2], > 100 µM; in assay [3] it was 81.5 µM; in assay [4], 63.2 µM; in [5], > 100 µM; in assay [6] it was 84.3 µM. The TGI was 31.3 µM in assay [7]; 72.7 µM in [8]; 41.6 µM in [9]; 69.8 µM in [10]; 37.1 µM in assay [11]; 89.7 µM in [12]. Besides, the TGI was 19.2 µM in assay [13], > 100 µM in [15], 52.5 µM in assay [16] and 69.6 µM in assay [18].
